Assay results: the supplement of paper PMC10733146

Tests used:
Assay in all cases: viability relative to DMSO control (fraction); higher = less drug effect (more viable cells)
Conditions in all cases: 48 h
[1] = compound: CC(C)(O)CNc1nc(Nc2ccnc(C(F)(F)F)c2)nc(-c2cccc(C(F)(F)F)n2)n1 [AG-221 (Enasidinib)]
In short: (§1)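 Primary mononuclear tumour cells (Ficoll-isolated from blood or bone marrow, or processed lymph node; fresh or cryopreserved) were plated at 4 × 10^4 cells per well in 384-well plates with pre-plated compounds at five concentrations, one well each. Medium was RPMI-1640 with penicillin/streptomycin, L-glutamine and human serum, at 37 °C and 5% CO2 for 48 h. Viability was read as CellTiter-Glo luminescence relative to the median of 16 inner DMSO wells.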

[2] = compound: O=C(CCCCCCC(=O)Nc1ccccc1)NO [Vorinostat]
In short: as §1

[3] = compound: CC(C)C[C@H](NC(=O)[C@H](Cc1ccccc1)NC(=O)c1cnccn1)B(O)O [Bortezomib]
In short: as §1

[4] = compound: CC(C)N(C[C@H]1O[C@@H](n2cnc3c(N)ncnc32)[C@H](O)[C@@H]1O)[C@H]1C[C@@H](CCc2nc3cc(C(C)(C)C)ccc3[nH]2)C1 [EPZ-5676]
In short: as §1

[5] = compound: NC(=O)Nc1cc(-c2cccc(F)c2)sc1C(=O)N[C@H]1CCCNC1 [AZD7762]
In short: as §1

[6] = compound: Cc1cn(-c2cc(NC(=O)c3ccc(C)c(Nc4nccc(-c5cccnc5)n4)c3)cc(C(F)(F)F)c2)cn1 [Nilotinib]
In short: as §1

[7] = compound: COc1c(Cl)cc2c([nH]c3cnccc32)c1NC(=O)c1cccnc1C [MLN-120B]
In short: as §1

[8] = compound: CC[C@]1(O)C[C@H]2CN(CCc3c([nH]c4ccccc34)[C@@](C(=O)OC)(c3cc4c(cc3OC)N(C=O)[C@H]3[C@@](O)(C(=O)OC)[C@H](OC(C)=O)[C@]5(CC)C=CCN6CC[C@]43[C@@H]65)C2)C1 [Vincristine]
In short: as §1

[9] = compound: CCCS(=O)(=O)Nc1ccc(F)c(C(=O)c2c[nH]c3ncc(-c4ccc(Cl)cc4)cc23)c1F [Vemurafenib]
In short: as §1

[10] = compound: COC1=CC(c2cc3ccccc3[nH]2)=N/C1=C\c1[nH]c(C)cc1C [Obatoclax mesylate]
In short: as §1

[11] = compound: Cc1cc(Nc2cc(N3CCN(C)CC3)nc(Sc3ccc(NC(=O)C4CC4)cc3)n2)n[nH]1 [Tozasertib]
In short: as §1

[12] = compound: CC#CC(=O)N1CC[C@@H](n2c(=O)n(-c3ccc(Oc4ccccc4)cc3)c3c(N)ncnc32)C1 [ONO-4059]
In short: as §1

[13] = compound: Cc1ccc(NC(=O)c2ccc(CN3CCN(C)CC3)cc2)cc1Nc1nccc(-c2cccnc2)n1 [Imatinib]
In short: as §1

[14] = compound: COc1nc(N)nc2c1ncn2[C@@H]1O[C@H](CO)[C@@H](O)[C@@H]1O [Nelarabine]
In short: as §1

primary MCL patient cells (S068)
viability ([1]; 0.024 µM): 0.778
viability ([1]; 0.12 µM): 0.792
viability ([1]; 0.6 µM): 1.01
viability ([1]; 3 µM): 1.22
viability ([1]; 15 µM): 1.73
viability ([2]; 0.016 µM): 1.1
viability ([2]; 0.08 µM): 1.04
viability ([2]; 0.4 µM): 0.459
viability ([2]; 2 µM): 0.167
viability ([2]; 10 µM): 0.121
viability ([3]; 0.008 µM): 0.942
viability ([3]; 0.04 µM): 0.932
viability ([3]; 0.2 µM): 0.964
viability ([3]; 1 µM): 0.982
viability ([3]; 5 µM): 0.956
viability ([4]; 0.0032 µM): 0.98
viability ([4]; 0.016 µM): 1.16
viability ([4]; 0.08 µM): 1.02
viability ([4]; 0.4 µM): 1.05
viability ([4]; 2 µM): 1.07
viability ([5]; 0.024 µM): 0.688
viability ([5]; 0.12 µM): 0.491
viability ([5]; 0.6 µM): 0.369
viability ([5]; 3 µM): 0.248
viability ([5]; 15 µM): 0.374
viability ([6]; 0.016 µM): 1.16
viability ([6]; 0.08 µM): 1.08
viability ([6]; 0.4 µM): 1.14
viability ([6]; 2 µM): 1.09
viability ([6]; 10 µM): 1.27
viability ([7]; 0.024 µM): 0.885
viability ([7]; 0.12 µM): 0.872
viability ([7]; 0.6 µM): 0.853
viability ([7]; 3 µM): 0.751
viability ([7]; 15 µM): 0.593
viability ([8]; 0.016 µM): 0.473
viability ([8]; 0.08 µM): 0.413
viability ([8]; 0.4 µM): 0.357
viability ([8]; 2 µM): 0.28
viability ([8]; 10 µM): 0.253
viability ([9]; 0.024 µM): 1.04
viability ([9]; 0.12 µM): 0.988
viability ([9]; 0.6 µM): 1.05
viability ([9]; 3 µM): 1.15
viability ([9]; 15 µM): 1.19
viability ([10]; 0.024 µM): 1.07
viability ([10]; 0.12 µM): 2.64
viability ([10]; 0.6 µM): 5.84
viability ([10]; 3 µM): 4.5
viability ([10]; 15 µM): 1.46
viability ([11]; 0.024 µM): 0.961
viability ([11]; 0.12 µM): 0.895
viability ([11]; 0.6 µM): 0.845
viability ([11]; 3 µM): 0.725
viability ([11]; 15 µM): 0.684
viability ([12]; 0.0016 µM): 0.759
viability ([12]; 0.008 µM): 0.715
viability ([12]; 0.04 µM): 0.692
viability ([12]; 0.2 µM): 0.665
viability ([12]; 1 µM): 0.717
viability ([13]; 0.016 µM): 1.19
viability ([13]; 2 µM): 0.976
viability ([13]; 10 µM): 0.861
viability ([14]; 0.024 µM): 0.995
viability ([14]; 0.12 µM): 1.1
viability ([14]; 0.6 µM): 0.94
viability ([14]; 3 µM): 0.901
viability ([14]; 15 µM): 0.682

primary T-PLL patient cells (S008)
viability ([1]; 0.024 µM): 0.915
viability ([1]; 0.12 µM): 0.887
viability ([1]; 0.6 µM): 1.04
viability ([1]; 3 µM): 1.01
viability ([1]; 15 µM): 0.899
viability ([2]; 0.016 µM): 1.01
viability ([2]; 0.08 µM): 0.989
viability ([2]; 0.4 µM): 1.07
viability ([2]; 2 µM): 0.984
viability ([2]; 10 µM): 0.851
viability ([3]; 0.008 µM): 0.88
viability ([3]; 0.04 µM): 1.02
viability ([3]; 0.2 µM): 0.872
viability ([3]; 1 µM): 0.921
viability ([3]; 5 µM): 0.879
viability ([4]; 0.0032 µM): 0.902
viability ([4]; 0.016 µM): 0.963
viability ([4]; 0.08 µM): 0.917
viability ([4]; 0.4 µM): 0.95
viability ([4]; 2 µM): 1
viability ([5]; 0.024 µM): 0.989
viability ([5]; 0.12 µM): 1.03
viability ([5]; 0.6 µM): 0.963
viability ([5]; 3 µM): 0.971
viability ([5]; 15 µM): 0.933
viability ([6]; 0.016 µM): 1.09
viability ([6]; 0.08 µM): 1.02
viability ([6]; 0.4 µM): 1.11
viability ([6]; 2 µM): 1.01
viability ([6]; 10 µM): 1.06
viability ([7]; 0.024 µM): 1.03
viability ([7]; 0.12 µM): 1.01
viability ([7]; 0.6 µM): 1.03
viability ([7]; 3 µM): 1
viability ([7]; 15 µM): 0.963
viability ([8]; 0.016 µM): 0.66
viability ([8]; 0.08 µM): 0.34
viability ([8]; 0.4 µM): 0.269
viability ([8]; 2 µM): 0.22
viability ([8]; 10 µM): 0.164
viability ([9]; 0.024 µM): 0.958
viability ([9]; 0.12 µM): 0.983
viability ([9]; 0.6 µM): 0.975
viability ([9]; 3 µM): 0.998
viability ([9]; 15 µM): 1.02
viability ([10]; 0.024 µM): 1.02
viability ([10]; 0.12 µM): 0.899
viability ([10]; 0.6 µM): 0.718
viability ([10]; 3 µM): 0.563
viability ([10]; 15 µM): 0.175
viability ([11]; 0.024 µM): 0.977
viability ([11]; 0.12 µM): 0.957
viability ([11]; 0.6 µM): 0.974
viability ([11]; 3 µM): 0.933
viability ([11]; 15 µM): 0.948
viability ([12]; 0.0016 µM): 1.02
viability ([12]; 0.008 µM): 1
viability ([12]; 0.04 µM): 1.03
viability ([12]; 0.2 µM): 1.03
viability ([12]; 1 µM): 1.06
viability ([13]; 0.08 µM): 0.971
viability ([13]; 0.4 µM): 1.07
viability ([13]; 2 µM): 0.994
viability ([13]; 10 µM): 0.978
viability ([14]; 0.024 µM): 1.03
viability ([14]; 0.12 µM): 0.99
viability ([14]; 0.6 µM): 0.942
viability ([14]; 3 µM): 0.906
viability ([14]; 15 µM): 0.758
